Results reported in patent publication US5948628A, “Methods of screening for compounds which mimic galectin-1” (The Board of Regents of The University of Oklahoma, priority 1997, dated 1999).

Tests used:
[1] = target: hamster galectin-1, native lectin (N-terminus SEQ ID NO:1) (Cricetulus griseus, UniProt P48538); experiment: Equilibrium dialysis binding of N-acetyllactosamine; conditions: stated only as similar affinity to the monomeric mutants
From the text: (§1) Specific mutations were created in the six N-terminal amino acids (SEQ ID NO:1) of hamster galectin-1, as indicated in FIG. 3 and as described in further detail in Cho and Cummings, Biochemistry, 35:13081, 1996, which is hereby incorporated by reference herein in its entirety. C2S-Gal-1 (SEQ ID NO:2) contains a single replacement of Cys-2 to Ser. V5D-Gal-1 (SEQ ID NO:3) contains a single mutation of Val-5 to Asp. N-Gal-1 (SEQ ID NO:4) contains disruptions of three hydrophobic amino acids at the N-terminus. We also made another mutant construct, termed N/C-Gal-1, which contained the amino terminal changes of N-Gal-1 in addition to multiple changes in specific hydrophobic amino acids at the C-terminus (data not shown). All mutants, except for C2S-Gal-1, behaved as monomers in size exclusion HPLC and native gel electrophoresis. C2S-Gal-1 was indistinguishable from the native lectin in its ability to undergo monomer-dimer equilibrium and in its carbohydrate-binding affinity. […] However, in equilibrium dialysis N-Gal-1 and V5D-Gal-1 bound N-acetyllactosamine with similar affinity (Kd ≈90 μM) to that of the C2S-Gal-1 and the native lectin. […] N/C-Gal-1 was non-functional.

[2] = target: T1, hamster galectin-1 mutant N-Gal-1 (monomeric; three hydrophobic N-terminal amino acids disrupted), SEQ ID NO:4 (Cricetulus griseus, UniProt P48538, A7S/C3S/L5Q/V6D); experiment: as above
T1 construct: made in house; host or cells: E. coli
T1 sequence (P48538 2-135 C3S/L5Q/V6D/A7S limits assumed): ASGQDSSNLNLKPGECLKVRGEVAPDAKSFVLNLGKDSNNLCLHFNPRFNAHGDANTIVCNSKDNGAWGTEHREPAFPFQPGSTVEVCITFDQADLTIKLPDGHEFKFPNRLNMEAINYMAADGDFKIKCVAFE
From the text: as §1

[3] = target: T2, hamster galectin-1 mutant V5D-Gal-1 (Val-5 to Asp), SEQ ID NO:3 (Cricetulus griseus, UniProt P48538, V6D); experiment: as above
T2 construct: made in house; host or cells: E. coli
T2 sequence (P48538 whole entry V6D): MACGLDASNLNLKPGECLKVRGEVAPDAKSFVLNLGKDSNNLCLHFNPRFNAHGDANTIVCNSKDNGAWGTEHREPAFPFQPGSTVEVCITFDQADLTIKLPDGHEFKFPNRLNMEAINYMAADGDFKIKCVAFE
From the text: as §1

[4] = target: T3, hamster galectin-1 mutant C2S-Gal-1 (Cys-2 to Ser), SEQ ID NO:2 (Cricetulus griseus, UniProt P48538, C3S); experiment: as above; conditions: stated only as similar affinity to the monomeric mutants
T3 construct: made in house; host or cells: E. coli
T3 sequence (P48538 whole entry C3S): as the sequence (P48538 whole entry V6D) above, with C3S, D6V counted along it
From the text: as §1

[5] = target: T4, recombinant galectin-1 (Cys at 2nd residue converted to Ser) (Cricetulus griseus, UniProt P48538, C3S); experiment: Cell agglutination by galectin-1; assay type: cell-based, hamster
T4 construct: made in house; host or cells: E. coli
T4 sequence (P48538 whole entry C3S): as the sequence (P48538 whole entry V6D) above, with C3S, D6V counted along it
Experimental: In all cases cell binding of galectin-1 to cells was inhibited by 10 mM lactose, a known inhibitor of galectin-1 (FIG. 1), but not by 10 mM maltose, an isomeric, non-inhibitory analog (data not shown). We noted that both activated neutrophils and desialylated HL-60 cells are strongly agglutinated by galectin-1, whereas resting neutrophils and HL-60 cells are not appreciably agglutinated, which further underscores the profound differences in surface phenotypes between resting and activated neutrophils.

[6] = target: T4, recombinant galectin-1 (Cys at 2nd residue converted to Ser); experiment: Galectin-1-induced apoptosis of activated neutrophils and desialylated HL-60 cells (annexin V staining); assay type: cell-based, hamster; conditions: galectin-1 10 μM; lactose 10 mM
Experimental: Resting or activated neutrophils (3×10^6 cells) were treated with galectin-1 (10 μM) in 0.5 ml of HBSS (lacking Ca^2+ /Mg^2+ and containing 0.5% human albumin) for 90 minutes at 37° C. in the presence or absence of 10 mM lactose. HL-60 cells and desialylated HL-60 cells (3×10^6 cells/0.5 ml) were treated with galectin-1 (10 μM) for 20 hours at 37° C. in the presence or absence of 10 mM lactose. At the end of the incubations all cells were treated with 10 mM lactose in PBS to disaggregate the cells. […]
Annexin V is a protein that recognizes phosphatidyl serine (PS) and is a convenient marker for apoptosis of neutrophils and other cells (S. J. Martin, C. P. Reutelingsperger, A. J. McGahon, J. A. Rader, R. C. van Schie, D. M. LaFace and D. R. Green DR, J. Exp. Med., 182:1545, 1995; C. H. Homburg, M. de Haas, A. E. von dem Borne, A. J. Verhoeven, C. P. Reutelingsperger and D. Roos, Blood, 85:532, 1995; I. Vermes, C. Haanen, H. Steffens-Nakken, and C. Reutelingsperger, J. Immunol. Methods, 184:39, 1995; Z. Darzynkiewicz, G. Juan, X. Li, W. Gorczyca, T. Murakami, and F. Traganos, Cytometry 27:1, 1997). […] Within 90 minutes following treatment with 10 μM galectin-1, 36% of the activated neutrophils undergo apoptosis, as determined by their staining with annexin V (FIG. 2A). […]

[7] = target: T4, recombinant galectin-1 (Cys at 2nd residue converted to Ser); experiment: Binding of biotinylated galectin-1 to activated neutrophils and desialylated HL-60 cells (flow cytometry); assay type: cell-based, hamster; conditions: 10 mM sugar; galectin-1 10 μg/ml; activated neutrophils, desialylated HL-60 cells
From the text: Isolated neutrophils were activated by treatment with PMA and HL-60 cells were desialylated by treatment with neuraminidase. Heparinized blood was obtained from normal donors. Neutrophils were isolated by dextran sedimentation, hypotonic lysis, and density gradient centrifugation on HISTOPAQUE-1077 (Sigma), as described [G. A. Zimmerman, T. M. McIntyre, and S. M. Prescott, J. Clin. Invest., 76:2235, 1985]. Typically, the polymorphonuclear cells were >90% neutrophils by Wright-Giemsa staining and >90% CD16^+ as assessed by flow cytometry. Neutrophils were activated by treatment with phorbol myristate acetate (PMA) (Sigma) (0.5 μM) for 20 minutes at 37° C. in RPMI containing 20% FCS (0.5 ml). HL-60 cells were routinely maintained in RPMI containing 20% FCS. Desialylated HL-60 cells were prepared by treating 3×10^7 cells with Arthrobacter ureafaciens neuraminidase (Sigma) (100 mU) in 500 μl of RPMI containing 20% FCS for 1 hour at 37° C. […] The washed cells were incubated with FITC-streptavidin (1:100 dilution) (Sigma), washed once with PBS, and analyzed by flow cytometry. […] "Unstained" indicates fluorescence of either resting neutrophils or HL-60 cells incubated in the absence of either MAL or galectin-1. "Control" indicates fluorescence of either activated neutrophils or desialylated HL-60 cells incubated with galectin-1 in the presence of 10 mM lactose.

Chain of hamster galectin-1, native lectin (N-terminus SEQ ID NO:1) (P48538 2-135): as the sequence (P48538 2-135 C3S/L5Q/V6D/A7S limits assumed) above, with S2C, Q4L, D5V, S6A counted along it

Row | Kd [1] | Kd [2] | Kd [3] | Kd [4] | Inhibition of cell agglutinating activity of galectin-1 [5] | Inhibition of apoptosis-inducing activity of galectin-1 [6] | Inhibition of cell binding of galectin-1 [7] | Compound
1 | ~90 µM | ~90 µM | ~90 µM | ~90 µM | – | – | – | CC(=O)N[C@H]1C(O)O[C@H](CO)[C@@H](O[C@@H]2O[C@H](CO)[C@H](O)[C@H](O)[C@H]2O)[C@@H]1O (some centres unmarked) [N-acetyllactosamine]
2 | – | – | – | – | inhibited | inhibited | inhibited | OC[C@H]1O[C@@H](O[C@H]2[C@H](O)[C@@H](O)C(O)O[C@@H]2CO)[C@H](O)[C@@H](O)[C@H]1O (some centres unmarked) [lactose]
3 | – | – | – | – | – | – | non-inhibitory | OC[C@H]1O[C@H](O[C@H]2[C@H](O)[C@@H](O)[C@H](O)O[C@@H]2CO)[C@H](O)[C@@H](O)[C@@H]1O [maltose]
